Measured values: PMC2827657 (Biochemistry, 2010)

Tests used:
[1] = biological target: NSMOA (Pseudomonas putida, UniProt O33471); assay: Linkage relationships of ligand binding and redox equilibria of NSMOA; set-up: species or system Pseudomonas putida S12
[2] = biological target: apo NSMOA (Pseudomonas sp, UniProt O50214); assay: biochemical
[3] = tested on: P. putida S12; conditions: growth of P. putida S12; cited from earlier work
[4] = biological target: NSMOA (Pseudomonas sp, UniProt O50214); assay: Stopped-flow fluorescence kinetics of oxidized FAD binding to NSMOA; set-up: species or system Pseudomonas putida S12; conditions: 280 μM NSMOA mixed with 50 μM FAD, 25°C, four-exponential fit
NSMOA (Pseudomonas sp, UniProt O50214), sequence (O50214 whole entry): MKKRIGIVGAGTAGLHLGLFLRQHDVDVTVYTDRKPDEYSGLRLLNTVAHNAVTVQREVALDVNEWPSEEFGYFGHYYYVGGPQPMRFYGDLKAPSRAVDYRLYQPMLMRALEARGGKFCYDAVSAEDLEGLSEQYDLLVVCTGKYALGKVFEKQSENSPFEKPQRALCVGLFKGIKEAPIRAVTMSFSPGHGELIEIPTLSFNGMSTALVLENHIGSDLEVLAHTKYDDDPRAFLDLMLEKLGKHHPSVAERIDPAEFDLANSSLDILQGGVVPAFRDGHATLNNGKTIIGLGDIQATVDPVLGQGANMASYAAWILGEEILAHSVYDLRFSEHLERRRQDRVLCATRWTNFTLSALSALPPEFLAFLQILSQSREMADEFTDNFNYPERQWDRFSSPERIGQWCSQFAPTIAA

[5] = cited from earlier work
[6] = calculated from linkage relationships

apo NSMOA, sequence (O50214 whole entry): as above

## c1ccccc1 [benzene, reference compound]
[1]; benzene affinity for reduced-FAD complex of NSMOA relative to comparison state
  positive cooperative interaction of benzene and reduced FAD binding (Kd1/Kd7): ~2 fold
[1]; relative to oxidized FAD cooperativity
  decrease in cooperativity of substrate-analog and reduced-FAD binding equilibria: 30 fold
[2]
  Kd: 4.2 ± 0.37 mM

## C=Cc1ccccc1 [styrene]
[3]
  styrene concentration at which growth is inhibited: greater than 300 μM

## Cc1cc2nc3c(=O)[nH]c(=O)nc-3n(C[C@H](O)[C@H](O)[C@H](O)COP(=O)(O)OP(=O)(O)OC[C@H]3O[C@@H](n4cnc5c(N)ncnc54)[C@H](O)[C@@H]3O)c2cc1C [oxidized FAD, flavin adenine dinucleotide]
[1]; [6]
  equilibrium midpoint potential of FAD bound to benzene-bound NSMOA: -142 mV
  equilibrium midpoint potential of FAD bound to benzene-free NSMOA: -97 mV
[4]
  rate constant k1: 265 s⁻¹
  rate constant k2: 120 s⁻¹
  rate constant k3: 21 s⁻¹
  rate constant k4: 0.34 s⁻¹
[5]
  Em1, solution potential of free FAD: -212 mV
